Experimental data published in ChEMBL document CHEMBL6083204, “Synthesis of a celastrol derivative as a cancer stem cell inhibitor through regulation of the STAT3 pathway for treatment of ovarian cancer” (RSC Med Chem, 2024).

Legend:
[1] = test system: A2780; assay: Antiproliferative activity against human A2780 cells assessed as inhibition of cell growth incubated for 72 hrs by MTT assay; type: functional, cell-based; conditions: A2780, 72 h
[2] = Selectivity index, ratio of IC50 for cytotoxicity against human IOSE80 cells to IC50 for cytotoxicity against human SK-OV-3 cells
[3] = test system: OVCAR-3; assay: Antiproliferative activity against human OVCAR-3 cells assessed as inhibition of cell growth incubated for 72 hrs by MTT assay; type: functional, cell-based; conditions: OVCAR-3, 72 h
[4] = Cytotoxicity against human IOSE80 cells assessed as inhibition of cell growth incubated for 72 hrs by MTT assay; type: toxicity, cell-based
[5] = test system: SK-OV-3; assay: Antiproliferative activity against human SK-OV-3 cells assessed as inhibition of cell growth incubated for 72 hrs by MTT assay; type: functional, cell-based; conditions: SK-OV-3, 72 h

Compound	IC50 [1]	Ratio IC50 [2]	IC50 [3]	IC50 at 72 h [4]	IC50 [5]
CC1=C(O)C(=O)C=C2C1=CC=C1[C@@]2(C)CC[C@@]2(C)[C@@H]3C[C@](C)(C(=O)O)CC[C@]3(C)CC[C@]12C [CELASTROL]	1990 nM	1.87	840 nM	2380 nM	1270 nM
COc1cccc2c1C(=O)c1c(O)c3c(c(O)c1C2=O)C[C@@](O)(C(=O)CO)C[C@@H]3O[C@H]1C[C@H](N)[C@H](O)[C@H](C)O1 [DOXORUBICIN]	4180 nM			760 nM	1680 nM
